ChEMBL document CHEMBL1150587, “Evaluation of the potential cancer chemotherapeutic efficacy of natural product isolates employing in vivo hollow fiber tests” (J Nat Prod, 2002)

Experiments:
[1] = test system: Col2; experiment: Cytotoxicity against human Col2 cells after 72 hrs by SRB assay; assay type: functional, cell-based; conditions: Col2, 72 h
[2] = test system: SK-MEL-2; experiment: Cytotoxicity against human SK-MEL-2 cells after 72 hrs by SRB assay; assay type: functional, cell-based; conditions: SK-MEL-2, 72 h
[3] = test system: SW626; experiment: Growth inhibition of human SW626 cells implanted subcutaneously to NCr nu/nu mouse at 128 to 512 umol/kg, ip administered from day 3 to 6 after implantation measured on day 7 by MTT-based hollow-fiber test; assay type: functional
[4] = test system: SW626; experiment: Cytotoxicity against human SW626 cells after 72 hrs by SRB assay; assay type: functional, cell-based; conditions: SW626, 72 h
[5] = test system: P388; experiment: Cytotoxicity against mouse P388 cells after 72 hrs by SRB assay; assay type: functional, cell-based; conditions: P388, 72 h
[6] = test system: KB; experiment: Cytotoxicity against human KB cells after 72 hrs by SRB assay; assay type: functional, cell-based
[7] = test system: SW626; experiment: Growth inhibition of human SW626 cells implanted intraperitoneally to NCr nu/nu mouse at 128 to 512 umol/kg, ip administered from day 3 to 6 after implantation measured on day 7 by MTT-based hollow-fiber test; assay type: functional
[8] = test system: MCF7; experiment: Cytotoxicity against human MCF7 cells after 72 hrs by SRB assay; conditions: MCF7, 72 h
[9] = Cytotoxicity against human BC1 cells after 72 hrs by SRB assay; conditions: BC1, 72 h
[10] = Cytotoxicity against human KBV1 cells after 72 hrs by SRB assay; assay type: functional, cell-based; conditions: KB-V1, 72 h
[11] = test system: Mus musculus; experiment: Toxicity in NCr nu/nu mouse subcutaneously implanted with human SW626 cells assessed as body weight change at 128 to 512 umol/kg, ip administered from day 3 to 6 after implantation measured on day 7; assay type: organism-based; conditions: in vivo
[12] = test system: LNCaP; experiment: Cytotoxicity against human LNCAP cells after 72 hrs by SRB assay; assay type: functional, cell-based
[13] = test system: Lu1; experiment: Cytotoxicity against human Lu1 cells after 72 hrs by SRB assay; assay type: functional, cell-based; conditions: Lu1, 72 h

**Q.** For CC1(C)CCC2=C(O1)C(=O)c1ccccc1C2=O [ALPHA-LAPACHONE], which IC50 [1] is on record?
**A.** The IC50 was 40.9 µM.

**Q.** And the IC50 [2]?
**A.** Its IC50 is 7.9 µM.

**Q.** And the “inhibition (INH)” value [3]?
**A.** The value was 10.3%.

**Q.** And the IC50 [4]?
**A.** The IC50 was 12.4 µM.

**Q.** And the IC50 [5]?
**A.** The IC50 was 0.8 µM.

**Q.** And the IC50 [6]?
**A.** The IC50 was 53.7 µM.

**Q.** What about the “inhibition (INH)” value [7] of the same compound?
**A.** The value was 0%.

**Q.** And the IC50 [8]?
**A.** The IC50 was 38 µM.

**Q.** What about the IC50 [9] of the same compound?
**A.** The IC50 was 27.7 µM.

**Q.** And the IC50 [10]?
**A.** Its IC50 is 34.3 µM.

**Q.** And the Activity [11]?
**A.** The Activity was 0.3 g.

**Q.** And the IC50 [12]?
**A.** The IC50 was 29.3 µM.

**Q.** And the IC50 [13]?
**A.** Its IC50 is 21.9 µM.
